According to patent US20160287575A1, “COMPOSITIONS AND METHODS FOR THE TREATMENT OF DISEASES INVOLVING HIPPO PATHWAY” (DUKE UNIVERSITY, priority 2013, published 2016):
Residues, ends and D or L forms follow the SMILES beside them. *: point of attachment. Cbz = O=C(OCc1ccccc1)*

What was measured:
YAP = assay: pharmacological block of YAP protein turnover in RASSF4-deficient aRMS cells; format: cell-based, human; settings: RASSF4-deficient aRMS cells versus control; data not shown
Excerpt: Finally, we examined whether there was a connection between RASSF4 and YAP. […] Since YAP protein is turned over by sequential phosphorylation and ubiquitin-mediated degradation (Zhao et al., Genes Dev. 24:72-85 (2010)), we attempted to pharmacologically block YAP protein turnover in RASSF4-deficient cells using MG132 or IC 261. […] When examined at the transcriptional level, we observed a decreasing trend in YAP mRNA levels that only reached significance with one RASSF4 shRNA. Since RASSF4 loss of function was causing growth arrest and senescence, we reasoned that these effects on YAP could be caused by the growth arrest itself and RASSF4 loss. […] Instead, cells expressing YAP S127A and RASSF4 shRNA had more pronounced mitotic defects (data not shown). Therefore, while we cannot identify a clear connection between RASSF4 and YAP in aRMS at this time, Hippo signaling is clearly dysregulated at multiple levels in RMS through RASSF4-MST1 and YAP-mediated mechanisms (FIG. 7F).

LATS1 = assay: nocodazole treatment, LATS1 phosphorylation by immunoblot; format: cell-based, human; settings: nocodazole-treated HSMM^PF+H+M cells, control and RASSF4-knockdown
MST1 = biological target: T1, MST1 (Homo sapiens, UniProt Q13043, K59R); assay: staurosporine stimulation, MST1 phosphorylation by immunoblot; format: cell-based; settings: MST1 K59R expressing HSMM^PF+H+M cells, 1 μM STS, 1 hour
T1 construct: expressed in transfected cells; host or cells: HSMM^PF+H+M cells (human skeletal muscle myoblasts expressing PAX3-FOXO1, hTERT, MycN), with or without RASSF4 shRNA
T1 sequence (Q13043 1-487 K59R): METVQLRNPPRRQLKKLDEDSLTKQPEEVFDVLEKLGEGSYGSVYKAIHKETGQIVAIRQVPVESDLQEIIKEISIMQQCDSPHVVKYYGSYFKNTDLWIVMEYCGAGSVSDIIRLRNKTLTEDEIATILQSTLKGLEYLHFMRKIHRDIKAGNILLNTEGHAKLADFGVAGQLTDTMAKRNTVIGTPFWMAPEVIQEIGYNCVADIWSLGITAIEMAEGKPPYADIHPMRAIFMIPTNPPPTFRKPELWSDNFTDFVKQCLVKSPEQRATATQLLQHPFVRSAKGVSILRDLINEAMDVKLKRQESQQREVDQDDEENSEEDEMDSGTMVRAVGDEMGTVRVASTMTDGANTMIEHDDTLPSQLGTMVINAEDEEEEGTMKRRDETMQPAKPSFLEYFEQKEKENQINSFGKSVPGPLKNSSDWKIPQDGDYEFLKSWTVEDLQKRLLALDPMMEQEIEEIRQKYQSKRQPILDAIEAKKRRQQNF
Protocol: (A) RASSF4 deficiency causes MST1 phosphorylation and cleavage upon staurosporine (STS) treatment. Cells expressing FLAG-MST1 K59R were treated for 1 hour with 1 μM STS and examined for phosphor-MST1/2 and total MST1 by immunoblot. (B) Upon 1 hour treatment with 1 μM STS, RASSF4-deficient aRMS cells display higher cleaved caspase 3 as measured by immunoblot. In A and B, actin was used as a loading control.
However, even without the ability to activate downstream signaling, MST1 K59R can still be regulated like wild-type MST1 through phosphorylation by upstream kinases and caspase cleavage. Since endogenous phospho-MST1 levels and MST1 cleavage products were in low abundance in aRMS cells and were difficult to detect, we used cells expressing MST1K59R to boost MST1 expression, while maintaining cell viability. We stimulated cells with staurosporine (STS), a well-established activator of MST1, and examined the role of RASSF4 in MST1 phosphorylation and cleavage (Graves et al., J. Biol. Chem 276:14909-14915 (2001)). […] This is the reported size of the MST1 cleavage fragment believed to be regulated by caspases (Graves et al. (2001); Cheung et al., Cell 113:507-517 (2003); Praskova et al., Biochem J. 381:453-462 (2004)). […]

[1] = biological target: Yki/YAP and transcriptional coactivator TEAD/TEF transcription factors (Homo sapiens, UniProt P46937); settings: identified in a screen; cited from earlier work
Chain of Yki/YAP and transcriptional coactivator TEAD/TEF transcription factors (P46937 whole entry): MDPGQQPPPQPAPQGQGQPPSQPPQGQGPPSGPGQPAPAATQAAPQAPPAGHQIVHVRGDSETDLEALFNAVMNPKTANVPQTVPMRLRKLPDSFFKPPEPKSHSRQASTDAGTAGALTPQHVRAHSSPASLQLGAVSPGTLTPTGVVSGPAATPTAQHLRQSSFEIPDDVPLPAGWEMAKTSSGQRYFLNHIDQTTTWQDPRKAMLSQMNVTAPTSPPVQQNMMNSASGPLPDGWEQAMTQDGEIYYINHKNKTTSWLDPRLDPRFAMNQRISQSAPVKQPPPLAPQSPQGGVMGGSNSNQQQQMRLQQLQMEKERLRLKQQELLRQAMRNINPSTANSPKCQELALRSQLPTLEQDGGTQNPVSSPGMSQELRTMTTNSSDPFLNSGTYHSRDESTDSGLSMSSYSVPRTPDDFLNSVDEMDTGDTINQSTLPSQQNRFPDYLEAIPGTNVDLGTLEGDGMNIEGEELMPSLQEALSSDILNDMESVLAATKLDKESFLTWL

Q: With `COc1cc(OC)c(C=C2C(O)=Nc3ccccc32)c(OC)c1` [IC 261] as the compound, how does the “phospho-YAP and total YAP levels” value (YAP) read?
A: still lower

Q: Which “phospho-YAP and total YAP levels” value (YAP) does the source give for `CC(C)C[C@@H](C=O)NC(=O)[C@H](CC(C)C)NC(=O)[C@H](CC(C)C)NC(=O)OCc1ccccc1` [MG132] (Cbz-Leu-Leu-Leu-aldehyde) here?
A: still lower

Q: Which “phosphorylated LATS1” value (LATS1) does the source give for `COC(=O)Nc1nc2ccc(C(=O)c3cccs3)cc2[nH]1` [nocodazole] here?
A: reduction in phosphorylated LATS1

Q: For `CN[C@@H]1C[C@H]2O[C@@](C)([C@@H]1OC)n1c3ccccc3c3c4c(c5c6ccccc6n2c5c31)C(=O)NC4` [staurosporine], which “phosphorylation of full-length MST1” value (MST1) is on record?
A: increased phosphorylation of full-length MST1

Q: With verteporfin as the compound, how does the “disruption of physical interactions between Yki/YAP and TEAD/TEF” value [1] read?
A: capable of disrupting physical interactions
